Test results reported in patent US20160243075A2, “TETRAHYDROCANNABIVARIN (THC) FOR USE IN THE PROTECTION OF PANCREATIC ISLET CELLS” (GW Pharma Limited, priority 2014, published 2016).
“Also recorded” adds a separate entry of the source.

Assays:
[1] = Bodyweight change and food intake of db/db mice over the 28 day study (Example 1); type: in vivo; conditions: male db/db mice, 10 mg/kg daily
Protocol: (§1) The phytocannabinoids CBD (10 mg/kg) and THCV (10 mg/kg) were tested along with AM 251 (10 mg/kg) which was used as a positive control.
(§2) On day 1 dosing commenced for groups A to D as outlined in Table 1.1 above. Animals were dosed daily at 17:00.

[2] = Oral glucose tolerance test in subjects with Type 2 diabetes at Visit 5 (Example 3 pilot study); type: in vivo, human; conditions: 5 mg THCV twice daily, Visit 5 (Week 13), compared to placebo
Text: There were four arms in this study plus a placebo comparator. These were a 1:1 and 20:1 ratio of CBD:THCV, CBD alone and THCV alone. Assessment of the impact of each treatment on different parameters was made. Measurements were taken of high density lipoprotein (HDL) cholesterol, total cholesterol, low density lipoprotein (LDL) cholesterol, HDL/LDL ratio, serum triglycerides, apolipoprotein markers (Apo A & Apo B) and determination of ApoA/Apo B ratio.
(§3) Other measurements including: lipid parameters; glucose control (fasting plasma glucose, glucose tolerance, serum fructosamine, glycosylated haemoglobin A1c (HbA1c) (whole blood)); Insulin sensitivity (insulin resistance); body weight & body mass index (BMI); adipose tissue distribution (total % body fat content, waist circumference, neck circumference, waist-to-hip ratio, visceral adiposity, liver triglyceride content); and appetite 11 point numerical rating scale (0-10 NRS).
(§4) The study took place over 15-19 weeks (1-5 week baseline and 13 week treatment period and 1 week follow-up), and was a multicentre, randomised, double blind, placebo controlled, parallel group pilot study which evaluated the test compounds on lipid parameters in subjects with Type 2 diabetes.
Further study visits took place at the end of Week 4 of treatment (Visit 3, Day 29), and again at the end of treatment at Week 13 (Visit 5, Day 92). […]

[3] = system: Glucagon-Like Peptide 1 (GLP-1); experiment: Serum glucagon-like peptide 1 (GLP-1) levels, change from baseline, subjects with Type 2 diabetes (Example 3); type: in vivo, human; conditions: oral 5 mg THCV twice daily, FIG. 18
Text: Laboratory assessments included; physical examination; markers of vascular function; markers of adipocyte function including leptin and adiponectin; markers of inflammation including cytokines; retinol binding protein (RBP4) concentration; orexin type A (Orexin A) concentration; gut signalling hormone (Gastric Inhibitory Peptide (GIP), Glucagon-like peptide-1 (GLP-1), ghrelin) concentrations; ketone bodies; and endocannabinoid plasma levels.
as §4
(§5) Further study visits took place at the end of Week 4 of treatment (Visit 3, Day 29), and again at the end of treatment at Week 13 (Visit 5, Day 92). Subjects were asked to fast overnight before Visits 1 (or 1B), 2 and 5 (minimum 8 hours). A telephone assessment was also performed at Day 57 (Visit 4) and at Week 14 (Visit 6, Day 99) for safety follow-up.
As this was a pilot study, a formal sample size calculation was not required. Each treatment group consisted of 10 subjects. There was five treatment groups 1:1 and 20:1 ratio of CBD:THCV plus CBD alone, THCV alone and placebo.

CB-1 receptor = CB-1 receptor (Homo sapiens, UniProt P21554); conditions: receptor binding studies, GB 2434097; cited from earlier work
pancreatic islet cells = experiment: Histology/morphology of insulin-stained pancreas in diabetic db/db mice (Example 1); type: in vivo; conditions: male db/db mice, 10 mg/kg daily
Protocol: as §1
At the start of the study the Group E animals were sacrificed and a terminal blood sample was taken. In addition four of the animals pancreases were sampled for determination of β-cell area, islet size and β-cell mass by […].
as §2
At the end of the study the animals were sacrificed and a terminal blood sample was taken. In addition four of the animals pancreases were sampled for determination of islet β-cell area, islet size and islet β-cell mass by […].
The pancreases were stained for insulin and the pancreatic islet cells were examined under a microscope to determine the amount of insulin in the cells.

beta cell function = experiment: HOMA2 beta cell function, change from baseline, subjects with Type 2 diabetes (Example 3); type: in vivo, human; conditions: 5 mg THCV twice daily, end of study period, FIG. 17
Text: as §3, §4, §5
(§6) As this was a pilot study, a formal sample size calculation was not required. Each treatment group consisted of 10 subjects. There was five treatment groups 1:1 and 20:1 ratio of CBD:THCV plus CBD alone, THCV alone and placebo. […]

[4] = HOMA2 insulin sensitivity, change from baseline, subjects with Type 2 diabetes (Example 3); type: in vivo, human; conditions: 5 mg THCV twice daily, end of study period, FIG. 16
Text: as §3, §4, §5, §6

[5] = Blood samples for glucose and insulin in db/db mice (Example 1); type: in vivo
Protocol: as §1, §2

Chain of CB-1 receptor (P21554 whole entry): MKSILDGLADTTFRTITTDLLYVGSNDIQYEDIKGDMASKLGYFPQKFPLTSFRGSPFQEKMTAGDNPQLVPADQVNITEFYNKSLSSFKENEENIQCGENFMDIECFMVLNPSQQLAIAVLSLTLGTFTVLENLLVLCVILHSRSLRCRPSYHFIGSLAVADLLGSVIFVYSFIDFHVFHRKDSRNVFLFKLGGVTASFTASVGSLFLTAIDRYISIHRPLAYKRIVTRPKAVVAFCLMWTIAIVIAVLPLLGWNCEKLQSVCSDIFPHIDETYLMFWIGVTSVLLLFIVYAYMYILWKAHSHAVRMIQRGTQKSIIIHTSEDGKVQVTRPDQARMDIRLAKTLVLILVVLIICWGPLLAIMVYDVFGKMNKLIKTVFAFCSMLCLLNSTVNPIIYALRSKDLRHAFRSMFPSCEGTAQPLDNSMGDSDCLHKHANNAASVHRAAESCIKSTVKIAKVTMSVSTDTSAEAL

Row | Structure (SMILES) | food intake [1] | weight gain (bodyweight change over the study period) ([1]; FIG. 6) | concentration of insulin during oral glucose tolerance test, mean change from baseline ([2]; FIG. 14) | concentration of blood glucose during oral glucose tolerance test, mean change from baseline ([2]; FIG. 15) | change from baseline in mean serum GLP-1 levels [3] | CB-1 receptor pharmacology (CB-1 receptor) | retention of insulin in the pancreatic islet (insulin staining, histology) (pancreatic islet cells; 28 day study, FIGS. 2-5, 10 mg/kg) | pancreatic islet beta cell mass (morphological analysis) (pancreatic islet cells; end of study, FIG. 8) | HOMA2 beta cell function, mean change from baseline (beta cell function) | HOMA2 insulin sensitivity, mean change from baseline [4] | blood glucose concentration during a 24 hour period ([5]; male db/db mice, 10 mg/kg daily, FIG. 7) | reduction in blood glucose ([5]; male db/db mice, 10 mg/kg daily, conclusion of Example 1) | fasting insulin ([5]; rodent model of diabetes)
1 | Cc1c(C(=O)NN2CCCCC2)nn(-c2ccc(Cl)cc2Cl)c1-c1ccc(I)cc1 [AM 251] | slightly lower | – | – | – | – | – | – | – | – | – | – | – | –
2 | C=C(C)[C@@H]1CCC(C)=C[C@H]1c1c(O)cc(CCCCC)cc1O [CBD, cannabidiol] | – | increased weight gain | – | – | – | – | – | – | – | – | – | – | –
3 | CCCc1cc(O)c2c(c1)OC(C)(C)[C@@H]1CCC(C)=C[C@@H]21 [THCV, Tetrahydrocannabivarin] | slightly lower | – | increases over the first hour and then reduces down to the same level as the placebo after 2 hours | quickly reducing the blood glucose level compared to placebo | highest increase in GLP-1 | neutral antagonist | greater retention of insulin in the pancreatic islet than both AM251 and CBD; also recorded: statistically more insulin present in the pancreatic islets | higher in the THCV treated animals than in the vehicle and CBD and AM251 treated groups | much increased beta cell function compared to all the other groups | increased sensitivity to insulin | more controlled during a 24 hour period | without having a profound reduction in blood glucose | reduction in fasting insulin
